{"source": "patent US20230096137A1", "about": "“COMPOSITION FOR LITHOGRAPHY AND PATTERN FORMATION METHOD” (Mitsubishi Gas Chemical Company, Inc., priority 2020, published 2023)"}
{"assay": "Safe solvent solubility test of compound (PGMEA)", "format": "physicochemical", "conditions": "23° C., ultrasonic 30 minutes, visual", "protocol": "(1) Safe Solvent Solubility Test of Compound\nThe solubility of the compound in PGMEA was evaluated according to the following criteria using the amount dissolved in each solvent. The amount of dissolution was measured at 23° C. by precisely weighing the compound into a test tube, adding a target solvent so as to attain a predetermined concentration, applying ultrasonic waves for 30 minutes in an ultrasonic cleaner, and then visually observing the subsequent state of the fluid.\nA: 5.0% by mass≤Amount of dissolution\nB: 2.0% by mass≤Amount of dissolution<5.0% by mass\nC: Amount of dissolution<2.0% by mass"}
{"smiles": "Oc1ccc2c3c(ccc2c1)Oc1ccc2cc(O)ccc2c1C3c1ccc(-c2ccccc2)cc1", "note": "[XBisN-C1, reference compound]", "Safety solvent solubility PGMEA": "B (2.0% by mass≤Amount of dissolution<5.0% by mass)"}
{"smiles": "Oc1ccc(-c2ccc(O)c(C(c3cc(-c4ccc(O)cc4)ccc3O)c3cc(I)cc(I)c3O)c2)cc1", "note": "[BisB-2]", "Safety solvent solubility PGMEA": "A (5.0% by mass≤Amount of dissolution)"}
{"smiles": "Cc1cc(C(c2ccc(I)cc2)c2cc(C)c(O)c(C)c2)cc(C)c1O", "note": "[BisB-1]", "Safety solvent solubility PGMEA": "A (5.0% by mass≤Amount of dissolution)"}
{"smiles": "Oc1ccc2c3c(ccc2c1I)Oc1ccc2c(I)c(O)ccc2c1C3c1ccc(-c2ccccc2)cc1", "note": "[XBisN-3]", "Safety solvent solubility PGMEA": "A (5.0% by mass≤Amount of dissolution)"}
{"smiles": "Oc1ccc2c3c(ccc2c1)Oc1ccc2cc(O)ccc2c1C3c1cccc(I)c1", "note": "[XbisN-1]", "Safety solvent solubility PGMEA": "B (2.0% by mass≤Amount of dissolution<5.0% by mass)"}
{"smiles": "CC(C)(COc1c(I)cc(N2CC=CC2)cc1I)COc1c(I)cc(N2CC=CC2)cc1I", "note": "[BMI-1]", "Safety solvent solubility PGMEA": "A (5.0% by mass≤Amount of dissolution)"}
